From patent EP0220011A2, “Use of azabicloalkylbenzamides in the treatment of gastrointestinal motility disorders, migraine, emesis, cluster headaches, trigeminal neuralgia and arrhythmia” (BEECHAM GROUP PLC, priority 1985, dated 1987)

Key:
Type in all cases: in vivo
[1] = Intragastric pressure in the rat; conditions: dose of 0.13 mg/kg s.c.; fasted conscious restrained rats; 40 minute period following dosing
Method: Intragastric pressure changes were recorded from fasted conscious and restrained rats using a saline filled catheter inserted into the lumen of the stomach via a permanent gastric fistula. The catheter was connected to a physiological pressure transducer and pressure changes recorded on a hot wire pen recorder. An index of activity was obtained by measuring the average height of pressure waves during 10 minute periods. Values for 4 such periods were obtained during assessment of spontaneous activity prior to dosing and for the 40 minute period following dosing with compound or vehicle. The Student's " t " test was applied to the mean values obtained for activity prior to and post treatment. Groups of 10 animals were used for each treatment.

[2] = tested on: von Bezold-Jarisch reflex evoked by 5-HT; assay: Antagonism of the von Bezold-Jarisch reflex; conditions: iv; anaesthetised rat; reduces the 5-HT-evoked heart rate response to 50% of the control response
Method: The compounds were evaluated for antagonism of the von Bezold-Jarisch reflex evoked by 5-HT in the anaesthetised rat according to the following method: • Male rats, 250-350g, were anaesthetised with urethane (1.25g/kg intraperitoneally) and blood pressure and heart rate recorded as described by Fozard J.R. et al., J. Cardiovasc. Pharmacol. 2, 229-245 (1^80). A submaximal dose of 5-HT (usually 6ug/kg) was given repeatedly by the intravenous route and changes in heart rate quantified. Compounds were given intravenously and the concentration required to reduce the 5-HT-evoked response to 50% of the control response (ED50) was then determined.

[3] = Intraluminal pressure in the Heidenhain pouch of the dog; conditions: dose of O.Olmg/kg i.v.; fasted conscious dog, chronic Heidenhain pouch; for at least 4-5 minutes
Method: Pressure changes were recorded via a saline filled catheter inserted, with airtight closure, into the fistula of a chronic Heidenhain pouch of the previously fasted and lightly restrained conscious dog. The catheter was connected to a physiological pressure transducer and pressure changes recorded on a hot wire pen recorder. Compounds were administered when the motility was in a phase of relatively low activity and the dose range determined which induced an increase in the amplitude of rhythmical contractions for a period of at least 4-5 minutes.

SMILES | Intragastric pressure changes (average height of pressure waves) [1] | ED50 [2] [µg/kg] | increase in the amplitude of rhythmical contractions (intraluminal pressure) [3]
COc1cc(N)c(Cl)cc1C(=O)NC1CC2CCC(C1)N2C (stereo not drawn) [Compound No. 20, (endo)-4-amino-5-chloro-2-methoxy-N-(8-methyl-8-azabicyclo[3.2.1]octyl) benzamide] | active | 0.8 ± 0.2 | 
COc1cc(N)c(Br)cc1C(=O)NC1CC2CCC(C1)N2C (stereo not drawn) [Example 1, (endo)-4-Amino-5-bromo-2-methoxy-N-(8-methyl-8-aza-bicyclo[3,2,l]oct-3-yl) benzamide] |  |  | active
